Patent US20130287757A1, “COMPOSITION FOR THE REGENERATION OF ATROPHIC TISSUES” (MEDESTEA INTERNAZIONALE S.P.A., priority 2011, published 2013)

B1: Papain FU (protein, UniProt P00784 134-345, looked up)
Papain: IPEYVDWRQKGAVTPVKNQGSCGSCWAFSAVVTIEGIIKIRTGNLNEYSEQELLDCDRRSYGCNGGYPWSALQLVAQYGIHYRNTYPYEGVQRYCRSREKGPYAAKTDGVRQVQPYNEGALLYSIANQPVSVVLEAAGKDFQLYRGGIFVGPCGNKVDHAVAAVGYGPNYILIKNSWGTGWGENGYIRIKRGTGNSYGVCGLYTSSFYPVKN

Assays:
[1] = tested on: biopsies from chronic atrophic ulcers (base and margins); assay: FACS of cell suspensions from cultured biopsies; format: cell-based, animal; conditions: for CK-1, FACS absolute value / CK-5, FACS absolute value / CK-10, FACS absolute value / CK-14, FACS absolute value / Collagen type I, FACS absolute value / Collagen type IV, FACS absolute value: geometric mean +/− Standard Deviation; for CK-1, FACS fluorescence as percentage value / CK-5, FACS fluorescence as percentage value / CK-10, FACS fluorescence as percentage value / CK-14, FACS fluorescence as percentage value / Collagen type I, FACS fluorescence as percentage value / Collagen type IV, FACS fluorescence as percentage value: relative to the isotypes, nonspecific fluorescence deducted
Protocol: The animal biopsy samples investigated are constituted of biopsies from chronic atrophic ulcers (base and margins).
The biopsies were then sectioned into twelve parts ([…] controls, 1-11, and one sample, 12, to be treated for each patient) and suspended in a final volume of 25 ml of the respective culture solutions in plates (Lab-Tek chamber slides, Nunc, Kamstrup, Denmark) of 10 cm.
One type of sample (12th portion of each biopsy investigated) was prepared, as follows: • sample-12: the biopsy findings of sample (12) were placed in plates (Lab-Tek chamber slides, Nunc, Kamstrup, Denmark) of 10 cm in culture medium in a solution Culture medium UL-MD.
All the findings were incubated for 15 days in a Heraeus incubator thermostatically controlled to a temperature of 37° C. with an atmosphere containing 5% of constant supply of CO2 (v/v in air). Two thirds of the culture medium was replaced every 7 days. All biopsy tissues used in culture constitute a possible optional substrate co-conditioning for the three-dimensional growth of the cellular samples investigated.
Cellular suspensions obtained after digestion with collagenase were transferred to 15-ml test tubes (Nunc, Kamstrup, Denmark) and fixed in 4% paraformaldehyde solution for 30 minutes at room temperature. After three washings with PBS (pH 7.4), the cells were permeabilized with Triton 0.1% for 15 minutes, […] at room temperature. The pellets of the samples (Sample, 12) and of the controls (CTRLs, 1-11) were resuspended to a final concentration of 5×10^5 cells/ml in PBS and incubated with the following primary antibodies (ABD serotec, Kidlington-Oxford, UK): anti-collagen type I, anti-collagen type anti-IV and anti-cytokeratins (CK)-1, -5, -10, -14. All monoclonal antibodies conjugated with R-phycoerythrin (PE) or fluorescein isothiocyanate (FITC) were used. Specific controls with the corresponding isotypes were divided for each monoclonal antibody (ABD serotec). The samples were submitted to quantitative analysis by a laser cytofluorometer (Epics profile II, Coulter, Hialeath, FL) at 488 nm, where the percentage of fluorescent cells (PFC) reflects the geometric mean of the field of interest. The threshold values (gates) were established using control samples labelled with the corresponding isotype. All the values were analysed with a minimum threshold of 15 000 cells.
The results relating to the expression of collagen type I, collagen type IV and of cytokeratins (CK) 1, 5, 10 and 14 were expressed with a quantitative scale relative to the fluorescence expressed as a percentage value relative to the isotypes, after deducting the assumed nonspecific fluorescence (specific gate), as follows: […]

[2] = tested on: biopsies from chronic atrophic ulcers (base and margins); assay: Western Blot phenotypic analysis of cultured biopsies; format: cell-based, animal; set-up: key: −−− = absence of band; −/+ = slight presence of band; + = thin band present; ++ = medium band present; +++ = broad band present; ++++ = high band present; +++++ = diffuse band present; conditions: 15 days culture
Protocol: The animal biopsy samples investigated are constituted of biopsies from chronic atrophic ulcers (base and margins). The biopsies were then sectioned into twelve parts ([…] controls, 1-11, and one sample, 12, to be treated for each patient) and suspended in a final volume of 25 ml of the respective culture solutions in plates (Lab-Tek chamber slides, Nunc, Kamstrup, Denmark) of 10 cm. Eleven types of control were prepared: • a negative control, untreated (1), i.e. treated exclusively with saline and antibiotics (as described above); • a positive control treated (2) with cell culture media commonly used for skin biopsies; • a control-3 treated with DMEM-LG/F 12 (1:1) culture medium and with the active ingredient described in Table 4. • a control-4 treated with DMEM-LG/F 12 (1:1) culture medium and with the active ingredient described in Table 5. • a control-5 treated with DMEM-LG/F 12 (1:1) culture medium and with the active ingredient described in Table 6. • a control-6 treated with DMEM-LG/F 12 (1:1) culture medium and with the active ingredient described in Table 7. • a control-8 treated with DMEM-LG/F 12 (1:1) culture medium and with the active ingredient described in Table 8. • a control-9 treated with DMEM-LG/F 12 (1:1) culture medium and with the active ingredient described in Table 9. • a control-10 treated with DMEM-LG/F12 (1:1) culture medium and with the active ingredient described in Table 10. • a control-11 treated with DMEM-LG/F12 (1:1) culture medium and with the active ingredient described in Table 11. One type of sample (12th portion of each biopsy investigated) was prepared, as follows: • sample-12: the biopsy findings of sample (12) were placed in plates (Lab-Tek chamber slides, Nunc, Kamstrup, Denmark) of 10 cm in culture medium in a solution Culture medium UL-MD. […] Two thirds of the culture medium was replaced every 7 days. All biopsy tissues used in culture constitute a possible optional substrate co-conditioning for the three-dimensional growth of the cellular samples investigated. […] After five washings, the membranes were incubated with the respective secondary antibodies (1:1000) conjugated with horseradish peroxidase (HRP, Santa Cruz, Calif., USA) for 1 h at room temperature, as shown below in Table 12.

Row | Molecule | CK-1, FACS absolute value [1] | CK-5, FACS absolute value [1] | CK-10, FACS absolute value [1] | CK-14, FACS absolute value [1] | Collagen type I, FACS absolute value [1] | Collagen type IV, FACS absolute value [1] | CK-1, FACS fluorescence as percentage value [1] | CK-5, FACS fluorescence as percentage value [1] | CK-10, FACS fluorescence as percentage value [1] | CK-14, FACS fluorescence as percentage value [1] | Collagen type I, FACS fluorescence as percentage value [1] | Collagen type IV, FACS fluorescence as percentage value [1] | CK-1 expression, Western Blot band [2] | CK-10 expression, Western Blot band [2] | CK-14 expression, Western Blot band [2] | Collagen type I expression, Western Blot band [2] | Collagen type IV expression, Western Blot band [2] | CK-5 expression, Western Blot band [2]
1 | O=C(O)c1ccccc1O [CTRL 4, Salicylic acid] | 29 +/− 7 | 6 +/− 5 | 9 +/− 7 | 11 +/− 8 | 12 +/− 3 | 9 +/− 8 | 14% | 0% | 1.9% | 1.25% | 3.9% | 0.3% | ++ | + | + | + | – | –
2 | [O]=[Zn] [CTRL 6, Zinc oxide powder] | 14 +/− 11 | 2 +/− 2 | 1 +/− 1 | 10 +/− 7 | 3 +/− 2 | 12 +/− 8 | 3% | 0% | 0% | 1.7% | 0.3% | 1.5% | + | – | + | – | + | –
3 | CC1(C)[C@@H](O)CC[C@]2(C)[C@H]3C(=O)C=C4[C@@H]5C[C@@](C)(C(=O)O)CC[C@]5(C)CC[C@@]4(C)[C@]3(C)CC[C@@H]12 [CTRL 8, Glycyrrhetic acid] | 5 +/− 3 | 3 +/− 1 | 4 +/− 1 | 2 +/− 1 | 6 +/− 4 | 7 +/− 5 | 1% | 1% | 0.5% | 0.1% | 0.9% | 0.9% | −/+ | + | −/+ | −/+ | −/+ | −/+
4 | B1 | 11 +/− 9 | 8 +/− 5 | 1 +/− 1 | 19 +/− 14 | 5 +/− 4- | 7 +/− 6 | 2% | 1.2% | 0% | 2% | 0.5% | 0.1% | + | – | + | – | – | +
